Reference: patent US9566282B2, “Methods for identifying and validating selective anti-cancer stem cell agents” (MCMASTER UNIVERSITY, priority 2011, dated 2017)
Counter-ions that a name gives are not always drawn.

What was measured:
[1] = test system: HL-60, OCI-AML2 and OCI-AML3; experiment: Cytotoxicity of DR agonists/antagonists against AML cell lines; type: cell-based; settings: 72 h; CLOZ at higher concentrations
Description: (§1) All three lines are leukemic cell lines. HL-60 was derived from promyelocytic AML whereas MV 4-11 and OCI-AML3 are representative of AML. Each compound was incubated with the cells for 72 h. The control was DMSO (ie the vehicle used for the compound) for 72 h. Each condition had three replicates.
A series of dopamine receptor agonists, D3-antagonists, DR1 & 5-antagonists and multi-receptor antagonists were tested for cytotoxicity against three AML cell lines HL-60, OCI-AML2 and OCI-AML3. Testing was performed as set out in Example 1.

[2] = test system: neoplastic hPSCs (v1H9-Oct4-GFP); experiment: Flow cytometry of Oct4+ cells in neoplastic hPSC; type: cell-based, human; settings: three concentrations; compared with BMP4 differentiation controls
AML LSCs = experiment: Xenotransplantation of compound-treated AML cells into NSG mice; type: in vivo, human; settings: 10 μM, cells treated 24 h before transplantation
Description: (§2) NOD.Cg-Prkdc^scid ll2rg^tm1Wjl/SzJ adult mice (NSG) were sub-lethally irradiated with 315 rads 24 hours prior transplantation. 0.8-1.0×10^7 AML MNCs or 1.5-1.8×10^5 CB lin− hematopoietic cells treated with compound or DMSO-vehicle for 24 h were injected via tail vein (IV). After 6-10 weeks, animals were culled, and the BM and spleen were analyzed for the presence of human cells by flow cytometry (LSRII, BD) and data was analyzed using FlowJo software (Tree Star Inc). For secondary HSPC transplants, equal number of engrafted human cells from CB lin− transplants were injected IV in adult irradiated NSG mice as described for primary transplants.
(§3) To delineate whether the inhibition of AML-blasts detected in vitro was due to the compounds affecting the neoplastic stem cell compartment, xenotransplantation studies (Dick, 2008) that functionally define LSCs and hematopoietic stem cells (HSCs) were conducted (FIG. 12).

[3] = test system: normal HSCs / HSPC (CB lin-); experiment: Methylcellulose colony-forming assay, normal HSC/HSPC; type: cell-based, human; settings: for HSPC CFU potential: 24 h treatment before plating, 0.1, 1, 10 μM tested
Description: Normal HSCs and progenitors were sourced from either mobilized peripheral blood or umbilical cord blood of health patients.
Patient HSPC and AML samples were treated with compound or DMSO-vehicle (0.1%) for 24 h prior to CFU plating or xenotransplantation studies.
AML patient or CB lin− cells were cultured 24 hours in the presence of compound or DMSO-vehicle (0.1%) control. […] CB lin− cells were plated at 1000 cells/mL in Methocult GF H4434 (Stem Cell Technologies). Colonies were scored after 14 days of culture using standard morphological criteria.

[4] = test system: primary AML cells (AML blast CFU); experiment: Methylcellulose blast-CFU assay, primary AML cells; type: cell-based, human; settings: for AML-blast CFU potential / formation: 24 h treatment before plating, salinomycin at 1 μM and 10 μM
Description: (§4) Due to the bioavailability of dopamine in fetal bovine serum (FBS) (Little et al., 2002), serum-free conditions were employed to assess the role of DRs in AML. […] DR D2-family and D1-family exert opposing actions on intracellular signaling leading to differential biological effects (Self et al., 1996).

[5] = test system: v1O4 cells (v1H9-Oct4-GFP); experiment: Library screen on variant neoplastic stem cells (LOP and cell count); type: cell-based, human; settings: for hit: loss of pluripotency and reduction in cell counts: 10 μM or 1 μM, 72 hours, Z-score more than 3 SD
Description: Compounds that reduced cell counts below 100 were classified as highly toxic and not considered as useful.
Briefly, v1O4 cells were seeded into Matrigel-coated 96 well plates (5000 cells/well) containing mouse embryonic fibroblast conditioned media (MEFCM) supplemented with 8 ng/mL bFGF, and treated for 72 hours with compounds dissolved in DMSO. The final concentration of each compound used in treatment was either 10 μM or 1 μM (n=3). Control wells were treated with 0.1% DMSO (low control) or 100 ng/ml BMP4 (high control to induce LOP). At the end of 72 hours, cells were fixed, stained with Hoechst and imaged by automated microscopy. GFP intensity and Hoechst signal were quantified as measures of LOP and cell count, respectively, and compounds with a Z-score of more than 3 standard deviations from the mean for reduced cell count and LOP were chosen as hits.

[6] = test system: v1O4 cells versus H9 cells; experiment: Dose-response cell counts, v1O4 versus H9 (selective-activity potency ratio); type: cell-based, human; settings: single 10 μM concentration point; selective at other concentrations
Description: The first step in the screening process, the primary screen, is shown in FIG. 21, step 1 and is also described in FIG. 17 and Example 13. […] These compounds then undergo a further set of analysis described in FIG. 21, step 2. […] 8- or 10-point dilutions for each compound are tested on variant neoplastic stem cells (V1O4) and normal stem cells (H9 cells) cells to generate dose-response curves. […] Dose response data were fit with a 4-parameter Hill equation to derive EC50, slopes, min and max values using IDBS ActivityBase software. The EC50 values are then used to calculate a selective-activity potency ratio (H9 EC50/v1O4 EC50). […] The efficacy of each compound can also be quantified by analysis if the derived min value from the 4-parameter Hill fit. An alternative metric for selective activity is an efficacy comparison. Selective EFFICACY=H9−FittedMin−v1O4−FittedMin.
Selectivity activity ratios [EC50 (v1O4)/EC50 (H9)] were calculated as discussed in Example 15 for a number of compounds screened using the methods described herein.

HSPCs / HSCs (CB lin-) = settings: in vivo
Description: as §2, §3

neoplastic hPSCs [7] = experiment: p53 and p21 staining of neoplastic hPSC; type: cell-based, human; settings: 24 h; compounds at 10 μM
Description: Antibodies used for immunocytochemistry were the following: Oct3/4 (BD Trunsduction Laboratories, cat#611203), Sox2 (R&D, cat#AF2018). To detect human hematopoietic cells, Pacific Blue−, PE−, APC− or FITC labeled anti-human CD45 was used (BD Biosciences). FITC anti-CD33, PE anti-CD13, FITC anti-CD41a, FITC anti-HLA DR, and PE anti-CD19 antibodies were obtained from BD Pharmingen. PE anti-CD14, PE anti-CD15 and PE anti-GlyA were acquired from Immunotech Beckman Coulter. To determine pluripotency, PE anti-SSEA3 (BD Biosciences) and PE- or AlexaFluor488 anti-Oct4 (BD Biosciences). Rabbit anti-human dopamine receptor antibodies; DRD1 (Cat#324390), DRD2 (Cat#324393), DRD3 (Cat#324402), DRD4 (Cat#324405) and DRD5 (Cat#324408) were sourced from EMD Chemical. Anti-rabbit Alexa-Fluor-488 (Molecular Probes) was used as the secondary antibody. Primary anti-p53 (Cat#2527) and anti-p21 (Cat#2947) rabbit IgG sourced from Cell Signaling Technology were used to stain fixed and permeabilized cells. Anti-rabbit alexa-Fluor-546 (Molecular Probes) was used as the secondary antibody. For breast tumor staining, APC anti-CD44 and PE-CD24 were sourced from BD Pharmingen.

AML-OCI2 and AML-OCI3 [8] = experiment: Induction of apoptosis in AML cancer cell lines (normal nuclei); type: cell-based, human
neoplastic hPSCs [9] = experiment: TaqMan Low-Density Array-qPCR of differentiation genes; type: cell-based, human; settings: thioridazine-treated neoplastic hPSCs; >2 fold increase
Description: Cells in specific conditions were collected and RNA was extracted by using RNeasy kit (Qiagen), complementary DNA (cDNA) generation by using SuperScript III® cDNA synthesis kit (Invitrogen), pre-amplification and TaqMan® array reaction (Applied Biosystems) were performed according to manufacturer's instructions. The gene expression profile for each treated cell population was analyzed using TaqMan® Stem Cell Pluripotency Array Card on ViiA 7 Real-Time PCR System (Applied Biosystems). Each reaction sample was dispensed into loading wells on the array card and centrifuged twice at 336×g for 1 min each time, sealed, and placed in the thermal cycler. The following cycling conditions were used for all array card applications: 45° C. for 10 min, 94° C. for 10 min, and 40 cycles of 94° C. for 30 s followed by 60° C. for 1 min. Array data were normalized to 18S RNA and GAPDH and comparisons were performed using data analysis 2.0 software (Applied Biosystems).
Rapid accumulation of the cell stress marker p53 (FIG. 10d) and its transcriptional target p21 (FIG. 10e) were used to further distinguish differentiation induction from cellular toxicity.

[10] = test system: HL-60, MV4-11 and OCI-AML3; experiment: Cytotoxicity to leukemic cell lines (normalized cell number, 72 h); type: cell-based; settings: 10 μM
Description: as §1
The dopamine receptor antagonist and phenothiazine-related compound chlorpromazine was also investigated for effects on the AML cell lines HL-60, MV4-11 and OCI-AML3. Testing was performed as set out in Example 1.

AML-OCI2 and AML-OCI3 [11] = experiment: Volumetric cell counts of AML lines treated with DR antagonists or agonists; type: cell-based, human; settings: 72 h, serum-free conditions
Description: The number of AML-OCI2 and AML-OCI3 cells present after 72 h treatment with DR antagonists (FIG. 16b) and agonist (FIG. 16c-d) were counted by measuring the number of events within a fixed volume following the grating strategy defined by forward scatter and side scatter clustering, 7AAD− and Hoechst+.
as §4

[12] = sorted patient AML cells, 24 h treatment

Which “cytotoxicity of AML cell lines” value [1] does the source give for `CN1CCN(C2=Nc3cc(Cl)ccc3Nc3ccccc32)CC1` [clozapine, Clozapine] here?
Its value is “significant effect on cytotoxicity”.

What does the source list for `OC(c1cc(C(F)(F)F)nc2c(C(F)(F)F)cccc12)C1CCCCN1` (stereo not shown) [mefloquine]?
cell number and levels of Oct4 in neoplastic hPSCs [2]: reductions in cell number and the levels of Oct4; AML LSC capacity (CD45+ CD33+ blast engraftment) (AML LSCs): ineffective in reducing AML LSC capacity; HSPC CFU potential [3]: little effect on HSPC CFU potential; AML-blast CFU potential / formation [4]: reduced AML-blast CFU formation

For `CN1CCN(CCCN2c3ccccc3Sc3ccc(C(F)(F)F)cc32)CC1` [trifluoperazine], which “hit: loss of pluripotency and reduction in cell counts” value [5] is on record?
Its value is “identified as hits”.

With `CC[C@@H](C(=O)[C@@H](C)[C@@H](O)[C@H](C)[C@@H]1O[C@@H]([C@@H](CC)C(=O)O)CC[C@@H]1C)[C@H]1O[C@]2(C=C[C@@H](O)[C@]3(CC[C@@](C)([C@H]4CC[C@](O)(CC)[C@H](C)O4)O3)O2)[C@H](C)C[C@@H]1C` [salinomycin] as the molecule, how does the “HSPC CFU potential” value [3] read?
Its value is “reduced HSPC CFU potential over all doses tested”.

What about the “AML-blast CFU potential / formation” value [4] of the same molecule?
The value was “reduced AML-blast CFU potential”.

For `CCCCc1ccc2[nH]c(NC(=O)OC)nc2c1` [parbendazole], which “selectivity for cancer stem cells at a single concentration point” value (shortened to “selectivity for cancer stem cells”) [6] is on record?
Its value is “would have not be considered selective for cancer stem cells”.

How did the “hit: loss of pluripotency and reduction in cell counts” value [5] turn out when `CN(C)CCCN1c2ccccc2Sc2ccc(C(F)(F)F)cc21` [triflupromazine] was run?
The value was “identified as hits”.

`CSc1ccc2c(c1)N(CCC1CCCCN1C)c1ccccc1S2` (racemic) [thioridazine, 10-{2-[(RS)-1-Methylpiperidin-2-yl]ethyl}-2-methylsulfanylphenothiazine] was tested. Which HSC self-renewal (HSPCs / HSCs (CB lin-)) did it give?
The HSC self-renewal was “did not affect HSC self-renewal”.

And the “accumulation of p53 and p21” value (neoplastic hPSCs [7])?
The value was “no accumulation of p53 or p21”.

What about the “induction of apoptosis / cell death” value (AML-OCI2 and AML-OCI3 [8]) of the same molecule?
The value was “exerts its effects on these cell lines through cell death”.

What about the differentiation-associated genes upregulated (neoplastic hPSCs [9]) of the same molecule?
The differentiation-associated genes upregulated was 21 of 50.

What about the “cytotoxicity of AML cell lines” value [1] of the same molecule?
Its value is “significant effect on cytotoxicity”.

What about the “normalized cell number / toxicity” value [10] of the same molecule?
Its value is “reduced to almost zero”.

What about the “cell number and levels of Oct4 in neoplastic hPSCs” value [2] of the same molecule?
The value was “reduce levels of Oct4 below BMP4 differentiation controls”.

What about the “AML LSC capacity (CD45+ CD33+ blast engraftment)” value (AML LSCs) of the same molecule?
The value was “significantly reduce leukemic disease-initiating AML LSCs”.

And the “number of AML cells” value (AML-OCI2 and AML-OCI3 [11])?
The value was “reduced the number of AML cells”.

And the “colony forming potential of normal HSCs” value ([3]; 10 μM, DMSO control about 100, at least 14 days)?
The value was “about 66 total colonies”.

And the “HSPC CFU potential” value [3]?
Its value is “little effect on HSPC CFU potential”.

What about the “hit: loss of pluripotency and reduction in cell counts” value [5] of the same molecule?
The value was “identified as a hit”.

What about the “signs of cell stress/death (Hoechst nuclear stain)” value ([5]; 10 μM, 3-day treatment) of the same molecule?
Its value is “less signs of cell stress/death than cells treated with thiostrepton”.

What about the “number of AML CFU blast colonies” value ([4]; 10 μM, control about 22, at least 14 days) of the same molecule?
Its value is 1.6 blast colonies.

What about the “AML-blast CFU potential / formation” value [4] of the same molecule?
Its value is “reduced AML-blast CFU formation”.

What about the “blast-CFU generation, DR+ subfraction” value [4, 12] of the same molecule?
The value was “reduction in blast-CFU generation”.

And the “blast-CFU generation, DR− subfraction” value [4, 12]?
The value was “no reduction”.

For `OCCN1CCN(CCCN2c3ccccc3Sc3ccc(C(F)(F)F)cc32)CC1` [fluphenazine], which “hit: loss of pluripotency and reduction in cell counts” value [5] is on record?
The value was “identified as hits”.

How did the “accumulation of p53 and p21” value (neoplastic hPSCs [7]) turn out when “BMP4: positive control that induces differentiation / loss of pluripotency, 100 ng/ml” was run?
Its value is “no accumulation of p53 or p21”.

Which “hit: loss of pluripotency and reduction in cell counts” value [5] does the source give for `CN1CCN(CCCN2c3ccccc3Sc3ccc(Cl)cc32)CC1` [prochlorperazine] here?
Its value is “identified as hits”.

For `Oc1cc2c(cc1O)[C@@H](c1ccccc1)CNCC2` [SKF38393, (R)-(+)-SKF-38393 hydrochloride], which “number of AML cells” value (AML-OCI2 and AML-OCI3 [11]) is on record?
Its value is “significant reduction in AML cell number”.

What does the source list for `CN(C)CCCN1c2ccccc2Sc2ccc(Cl)cc21` [chlorpromazine, Chlorpromazine hydrochloride]?
cytotoxicity of AML cell lines [1]: significant effect on cytotoxicity; normalized cell number / toxicity [10]: toxic to AML cell lines; number of AML cells (AML-OCI2 and AML-OCI3 [11]): reduced the number of AML cells; hit: loss of pluripotency and reduction in cell counts [5]: did not have a comparable effect on v1O4 cells

With `Cn1cc(C2=C(c3cn(CCCSC(=N)N)c4ccccc34)C(=O)NC2=O)c2ccccc21` [31-8220] as the molecule, how does the “selectivity for cancer stem cells” value [6] read?
The value was “would have not be considered selective for cancer stem cells”.

With `COc1cc([C@@H]2c3cc4c(cc3[C@@H](O[C@@H]3O[C@@H]5CO[C@@H](C)O[C@H]5[C@H](O)[C@H]3O)[C@H]3COC(=O)[C@H]23)OCO4)cc(OC)c1O` [etoposide] as the molecule, how does the “accumulation of p53 and p21” value (neoplastic hPSCs [7]) read?
Its value is “high levels of p53 and p21”.

`Nc1nc2nn[nH]c2c(=O)[nH]1` [8-azaguanine] was tested. Which “selectivity for cancer stem cells” value [6] did it give?
The value was “would have not be considered selective for cancer stem cells”.

For `OCCN1CCN(CCCN2c3ccccc3Sc3ccc(Cl)cc32)CC1` [perphenazine], which “hit: loss of pluripotency and reduction in cell counts” value [5] is on record?
The value was “identified as hits”.

With `Br.CCCN(CCC)[C@@H]1CCc2ccc(O)cc2C1` [7OH-DPAT, R(+)-7-Hydroxy-DPAT hydrobromide] as the molecule, how does the “number of AML cells” value (AML-OCI2 and AML-OCI3 [11]) read?
Its value is “increased the number of AML cells”.
